Experimental data from patent publication US20110172217A1, “RING-FUSED MORPHOLINE DERIVATIVE HAVING PI3K-INHIBITING ACTIVITY” (Shionogi & Co., Ltd., priority 2008, published 2011).

Molecular target: PI-3 kinase γ (Homo sapiens, UniProt P48736)
Assay: PI3Kγ inhibitory activity, PI3-kinase HTRF assay (inhibition ratio)
Assay type: biochemical
Details: 0.5 h, compound at 50 μmol/L
Experimental: For each compound synthesized in the above Examples, PI3Kγ inhibitory activity was measured.
The PI3Kγ inhibitory activity of a compound was evaluated using PI3-kinase HTRF™ assay (Millipore) according to the following procedure:
To each well of a testing plate, 5 μL of a compound solution containing 10% DMSO (200 μmol/L or 40 μmol/L as the concentration of the compound), 5 μL of a substrate solution (40 μmol/L phosphatidylinositol (4,5)-bisphosphate, 20 mmol/L MgCl2, 10 mmol/L DTT), and 5 μL of a enzyme solution (80 μg/mL PI-3 kinase γ, 10 mmol/L MgCl2, 5 mmol/L DTT) were added, and then allowed to stand for 10 minutes.
Then, 5 μL of a reaction solution (40 μmol/L ATP, 10 mmol/L MgCl2, 5 mmol/L DTT) was added thereto. After reacting for 30 minutes at room temperature, 5 μL of a solution containing EDTA and biotinylated phosphatidylinositol (3,4,5)-triphosphate were added to quench the reaction.
5 μL of a detection reagent containing a europium-labeled anti-GST antibody, the GST-tagged PH domain, and allophycocyanin-labeled streptavidin was added thereto. After 18 hours, HTRF (excitation wavelength: 330 nm, measured wavelengths: 620 nm and 665 nm) was measured.
HTRF ratio was defined as the value obtained by dividing the amount of fluorescence obtained at the measured wavelength 665 nm by the amount of fluorescence obtained at 620 nm. The HTRF ratio in the absence of a compound was defined as 100% activity and the HTRF ratio in the absence of PI-3 kinase γ was defined as 0% activity to calculate an inhibition ratio which was defined as the PI3Kγ inhibitory activity of a compound at 50 μmol/L or 10 μmol/L.

PI-3 kinase γ, sequence (P48736 whole entry): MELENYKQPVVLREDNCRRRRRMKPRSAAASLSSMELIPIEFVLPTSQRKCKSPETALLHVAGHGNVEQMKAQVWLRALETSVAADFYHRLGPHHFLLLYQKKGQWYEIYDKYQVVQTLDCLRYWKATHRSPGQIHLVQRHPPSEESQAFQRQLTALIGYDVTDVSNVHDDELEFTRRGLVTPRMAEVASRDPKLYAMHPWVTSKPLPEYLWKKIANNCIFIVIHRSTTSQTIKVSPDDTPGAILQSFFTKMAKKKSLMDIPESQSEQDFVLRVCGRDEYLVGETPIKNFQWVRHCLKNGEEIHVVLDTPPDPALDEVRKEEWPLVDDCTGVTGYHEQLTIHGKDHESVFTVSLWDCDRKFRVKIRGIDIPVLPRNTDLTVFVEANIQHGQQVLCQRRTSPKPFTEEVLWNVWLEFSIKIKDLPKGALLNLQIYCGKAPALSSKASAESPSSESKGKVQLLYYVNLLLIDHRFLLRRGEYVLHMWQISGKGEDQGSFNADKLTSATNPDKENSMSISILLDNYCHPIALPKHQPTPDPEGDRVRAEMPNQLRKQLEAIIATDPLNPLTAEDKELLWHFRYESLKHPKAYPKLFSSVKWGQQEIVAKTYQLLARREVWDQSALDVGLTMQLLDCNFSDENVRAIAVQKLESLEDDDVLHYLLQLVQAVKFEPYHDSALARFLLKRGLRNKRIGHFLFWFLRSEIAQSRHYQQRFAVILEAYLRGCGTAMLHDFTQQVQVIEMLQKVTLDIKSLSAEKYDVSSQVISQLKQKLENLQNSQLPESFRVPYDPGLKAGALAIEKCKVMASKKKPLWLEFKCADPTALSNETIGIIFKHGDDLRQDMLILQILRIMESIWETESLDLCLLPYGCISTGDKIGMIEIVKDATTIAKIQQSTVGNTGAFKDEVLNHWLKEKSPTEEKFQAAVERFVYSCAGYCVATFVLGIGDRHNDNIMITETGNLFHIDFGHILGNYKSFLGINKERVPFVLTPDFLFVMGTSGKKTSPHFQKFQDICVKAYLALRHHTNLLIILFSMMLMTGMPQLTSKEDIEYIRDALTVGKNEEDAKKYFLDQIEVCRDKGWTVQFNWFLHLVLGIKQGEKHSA

Row | Compound | inhibition at 50 µM
1 | CCOC(=O)Cc1ccc(Nc2ccc3c(n2)N(C(=O)Nc2ccccc2)CCO3)cc1 [Compound I-212] | ≥ 95%
2 | CC(C)(C)OC(=O)COc1ccc(Nc2ccc3c(n2)N(C(=O)Nc2ccccc2)CCO3)cc1 [Compound I-213] | ≥ 95%
3 | CC(C)(C)OC(=O)NCCOc1ccc(Nc2ccc3c(n2)N(C(=O)Nc2ccccc2)CCO3)cc1 [Compound I-214] | ≥ 95%
4 | CC(C)(C)OC(=O)NCCOc1ccccc1Nc1ccc2c(n1)N(C(=O)Nc1ccccc1)CCO2 [Compound I-215] | ≥ 95%
5 | COC(=O)c1ccc(Nc2ccc3c(n2)N(C(=O)Nc2ccccc2)CCO3)c(OCCNC(=O)OC(C)(C)C)c1 [Compound I-216] | ≥ 95%
6 | COC(=O)c1ccc(O)c(Nc2ccc3c(n2)N(C(=O)Nc2ccccc2)CCO3)c1 [Compound I-217] | 77%
7 | COCOc1ccc(C(=O)O)cc1NC(=O)c1ccc2c(n1)N(C(=O)Nc1ccccc1)CCO2 [Compound I-218] | 87%
8 | CC(C)(C)OC(=O)NCCOc1cccc(Nc2ccc3c(n2)N(C(=O)Nc2ccccc2)CCO3)c1 [Compound I-219] | ≥ 95%
9 | O=C(O)C1CCN(c2ccc3c(n2)N(C(=O)Nc2ccccc2)CCO3)CC1 [Compound I-220] | ≥ 95%
10 | NCCOc1ccc(Nc2ccc3c(n2)N(C(=O)Nc2ccccc2)CCO3)cc1 [Compound I-221] | ≥ 95%
11 | NCCOc1cccc(Nc2ccc3c(n2)N(C(=O)Nc2ccccc2)CCO3)c1 [Compound I-222] | ≥ 95%
12 | NCCOc1ccccc1Nc1ccc2c(n1)N(C(=O)Nc1ccccc1)CCO2 [Compound I-223] | ≥ 95%
13 | O=C(O)COc1ccc(Nc2ccc3c(n2)N(C(=O)Nc2ccccc2)CCO3)cc1 [Compound I-224] | ≥ 95%
14 | O=C(O)Cc1ccc(Nc2ccc3c(n2)N(C(=O)Nc2ccccc2)CCO3)cc1 [Compound I-225] | ≥ 95%
15 | CC(C)(C)OC(=O)NCCOc1cc(C(=O)O)ccc1Nc1ccc2c(n1)N(C(=O)Nc1ccccc1)CCO2 [Compound I-226] | ≥ 95%
16 | NCCOc1cc(C(=O)O)ccc1Nc1ccc2c(n1)N(C(=O)Nc1ccccc1)CCO2 [Compound I-227] | ≥ 95%
17 | COC(=O)c1ccc(Nc2ccc3c(n2)N(C(=O)Nc2ccccc2)CCO3)cc1 [Compound I-229] | ≥ 95%
18 | Cc1cc(C(=O)O)ccc1-c1ccc2c(n1)N(C(=O)Nc1ccccc1)CCO2 [Compound I-230] | ≥ 95%
19 | CC(C)(C)OC(=O)N1CCC(Nc2ccc3c(n2)N(C(=O)Nc2ccccc2)CCO3)CC1 [Compound I-231] | ≥ 95%
20 | COC(=O)c1cccc(Nc2ccc3c(n2)N(C(=O)Nc2ccccc2)CCO3)c1 [Compound I-232] | ≥ 95%
21 | CC(C)(C)OC(=O)COc1cccc(Nc2ccc3c(n2)N(C(=O)Nc2ccccc2)CCO3)c1 [Compound I-233] | ≥ 95%
22 | CC(C)(C)OC(=O)COc1cccc(Nc2cnc3c(c2)OCCN3C(=O)Nc2ccccc2)c1 [Compound I-234] | ≥ 95%
23 | CC(C)(C)OC(=O)COc1ccc(Nc2cnc3c(c2)OCCN3C(=O)Nc2ccccc2)cc1 [Compound I-237] | ≥ 95%

Row | Compound | inhibition at 50 µM
24 | CCOC(=O)CNC(=O)Nc1cnc2c(c1)OCCN2C(=O)Nc1ccccc1 [Compound I-238] | 83%
25 | O=C(O)COc1cccc(Nc2cnc3c(c2)OCCN3C(=O)Nc2ccccc2)c1 [Compound I-241] | ≥ 95%
26 | CC(C)(C)OC(=O)COc1ccccc1Nc1ccc2c(n1)N(C(=O)Nc1ccccc1)CCO2 [Compound I-242] | ≥ 95%
27 | COC(=O)c1ccc(N(C)c2cnc3c(c2)OCCN3C(=O)Nc2ccccc2)cc1 [Compound I-243] | 77%
28 | CC(C)(C)OC(=O)N1CCN(c2cnc3c(c2)OCCN3C(=O)Nc2ccccc2)CC1 [Compound I-244] | 80%
29 | CC(C)(C)OC(=O)N1CCN(c2cnc3c(c2)OCCN3C(=O)Nc2ccccc2)CC1C(=O)O (centres unmarked) [Compound I-245] | ≥ 95%
30 | O=C(Nc1ccccc1)N1CCOc2cc(N3CCNCC3)cnc21 [Compound I-246] | ≥ 95%
31 | COC(=O)c1cncc(-c2ccc3c(n2)N(C(=O)Nc2ccccc2)CCO3)c1 [Compound I-249] | ≥ 95%
32 | O=C(Nc1ccccc1)N1CCOc2cc(-c3ccnn3C3CCCCO3)cnc21 (centres unmarked) [Compound I-250] | 91%
33 | O=C(Nc1ccccc1)N1CCOc2cc(-c3cn[nH]c3)cnc21 [Compound I-251] | ≥ 95%
34 | O=C(O)COc1ccc(Nc2cnc3c(c2)OCCN3C(=O)Nc2ccccc2)cc1 [Compound I-252] | ≥ 95%
35 | O=C(O)c1ccc(-c2ccc3c(n2)OCCN3C(=O)Nc2ccccc2C(=O)O)cc1 [Compound I-259] | ≥ 95%
36 | COc1cccc(NC(=O)N2CCOc3nc(-c4ccc(C(=O)O)cc4)ccc32)c1 [Compound I-265] | 75%
37 | O=C(Nc1ccccc1)N1CCOc2cc(-c3cc[nH]n3)cnc21 [Compound I-269] | 71%
38 | O=C(Nc1cccnc1)N1CCOc2cc(Nc3ccccc3)cnc21 [Compound I-271] | ≥ 95%
39 | CC(C)(C)OC(=O)CNC(=O)c1cccc(Nc2ccc3c(n2)N(C(=O)Nc2ccccc2)CCO3)c1 [Compound I-272] | ≥ 95%
40 | CC(C)(C)OC(=O)CNC(=O)c1ccc(Nc2ccc3c(n2)N(C(=O)Nc2ccccc2)CCO3)cc1 [Compound I-273] | 76%
41 | O=C(Nc1ccccc1)N1CCOc2cc(-c3ccc[nH]3)cnc21 [Compound I-274] | ≥ 95%
42 | O=C(O)CNC(=O)c1cccc(Nc2ccc3c(n2)N(C(=O)Nc2ccccc2)CCO3)c1 [Compound I-277] | ≥ 95%
43 | O=C(O)CNC(=O)c1ccc(Nc2ccc3c(n2)N(C(=O)Nc2ccccc2)CCO3)cc1 [Compound I-278] | ≥ 95%
44 | O=C(O)Cn1cc(-c2cnc3c(c2)OCCN3C(=O)Nc2ccccc2)cn1 [Compound I-280] | 88%
45 | O=C(Nc1ccccc1)N1CCOc2cc(-c3cc4ccccc4[nH]3)cnc21 [Compound I-282] | 74%
46 | CC(C)(C)OC(=O)n1c(-c2cnc3c(c2)OCCN3C(=O)Nc2ccccc2)cc2ccccc21 [Compound I-283] | 85%

Row | Compound | inhibition at 50 µM
47 | CN(c1ccc(C(=O)O)cc1)c1ccc2c(n1)N(C(=O)Nc1ccccc1)CCO2 [Compound I-284] | 82%
48 | O=C(O)c1ccc(-c2cnc3c(c2)OCCN3C(=O)Nc2ccccc2)s1 [Compound I-285] | 88%
49 | CC1CN(C(=O)Nc2ccccc2)c2nc(-c3ccc(C(=O)O)cc3)ccc2O1 (centres unmarked) [Compound I-290] | 86%
50 | O=C(Nc1ccccc1)N1CCOc2cc(-c3cnn(CCN4CCOCC4)c3)cnc21 [Compound I-293] | ≥ 95%
51 | COc1ccc2cc(-c3cnc4c(c3)OCCN4C(=O)Nc3ccccc3)[nH]c2c1 [Compound I-302] | 87%
52 | CNC(=O)c1cnc2c(c1)OCCN2C(=O)Nc1ccccc1 [Compound I-303] | 89%
53 | CC(C)(C)OC(=O)CCNC(=O)c1cnc2c(c1)OCCN2C(=O)Nc1ccccc1 [Compound I-305] | 84%
54 | O=C(O)CCNC(=O)c1cnc2c(c1)OCCN2C(=O)Nc1ccccc1 [Compound I-307] | 92%
55 | O=C(Nc1ccccc1)N1CCOc2cc(Nc3ccc(F)cc3Cl)cnc21 [Compound I-309] | 90%
56 | CCN(CC)c1ccc(Nc2cnc3c(c2)OCCN3C(=O)Nc2ccccc2)cc1 [Compound I-310] | ≥ 95%
57 | CCCCNS(=O)(=O)c1cccc(Nc2cnc3c(c2)OCCN3C(=O)Nc2ccccc2)c1 [Compound I-311] | 81%
58 | COc1ccc(Nc2cnc3c(c2)OCCN3C(=O)Nc2ccccc2)cc1 [Compound I-313] | 92%
59 | C#Cc1cccc(Nc2cnc3c(c2)OCCN3C(=O)Nc2ccccc2)c1 [Compound I-314] | 78%
60 | CC(C)(C)NC(=O)c1ccccc1Nc1cnc2c(c1)OCCN2C(=O)Nc1ccccc1 [Compound I-315] | 93%
61 | O=C(Nc1ccccc1)N1CCOc2cc(Nc3ccc4ncccc4c3)cnc21 [Compound I-316] | 87%
62 | O=C(Nc1ccccc1)N1CCOc2cc(Nc3ccc4ncsc4c3)cnc21 [Compound I-317] | ≥ 95%
63 | N#Cc1ccc(Nc2cnc3c(c2)OCCN3C(=O)Nc2ccccc2)cc1 [Compound I-318] | ≥ 95%
64 | Cc1ccc(Nc2cnc3c(c2)OCCN3C(=O)Nc2ccccc2)cc1F [Compound I-319] | 92%
65 | O=C(Nc1ccccc1)N1CCOc2cc(Nc3ccc4c(c3)CCO4)cnc21 [Compound I-320] | 95%
66 | COC(=O)c1ccc(-c2ccc(Nc3cnc4c(c3)OCCN4C(=O)Nc3ccccc3)cc2)cc1 [Compound I-321] | 76%
67 | O=C(Nc1ccccc1)N1CCOc2cc(Nc3ccc(Oc4ccccc4)cc3)cnc21 [Compound I-322] | 78%
68 | O=C(Nc1ccccc1)N1CCOc2cc(Nc3ccc(S(=O)(=O)N4CCOCC4)cc3)cnc21 [Compound I-323] | 89%
